Columns and labels:
[1] = test system: non-small cell lung cancer A549 cells; assay: In vitro cell inhibition assay, CCK-8 method, A549; type: cell-based, human; details: for Proliferation inhibitory effect of the compounds on A549 cells (% of Control): 48 h incubation
Protocol: (§1) After the cell culture flasks gently shaking, culture fluid was discarded in clean bench. […] Cells were collected and transferred to centrifuge tube. For the non-adherent cells HL-60, CCRF-CEM and MOLT-4, cell flasks were picked up from incubator and then transferred to the centrifuge tubes directly. After cells were collected using centrifuge at 1000 rpm/min for 5 min, the fluid was discarded. Then cells were washed for one time by PBS, discard fluid. Then add some medium, count cells under inverted microscope using blood cell counting plate, according the counting number to making the density of adherent cell was 1×10^5 cells/mL, the non-adherent cell was 2×10^5 cells/mL (the volumes of HL-60, CCRF-CEM, MOLT-4 are smaller than non-adherent cells, these cells added to each well was much more higher). Add 50 μL aliquots to each well of 96-well plates (the density of adherent cells was 5000 cells/well, non-adherent cells was 10000 cells/well). Blank control, Negative control, blank control with compounds and positive control wells were grouped, and three replicate wells were used for each data point in the experiments. Then the cells were cultured in 5% incubator for overnight at 37° C., Then the different concentration compounds were added to each well. After incubation for 48 h, according to the manufacturer's instructions, CCK-8 reagent (10 μl) was added and incubation was continued for a further 2-4 h. The absorbance (A) of each well was read at 450 nm using a plate reader.

leukemia HL-60 cells = assay: In vitro cell inhibition assay, CCK-8 method, HL-60; type: cell-based, human; details: for Proliferation inhibitory effect of the compounds on HL-60 cells (% of Control): CCK-8 method
Protocol: as §1

[2] = test system: nasopharyngeal carcinoma CNE; assay: In vitro cell inhibition assay, CCK-8 method, CNE; type: cell-based, human; details: Homo sapiens, read-out: The half maximal inhibitory concentration (IC50)
Protocol: as §1, with “After incubation for 48 h, according to the manufacturer's instructions, CCK-8 reagent (10 μl) was added and incubation was continued for a further 2-4 h.” left out

pancreatic cancer BXPC-3 = assay: In vitro cell inhibition assay, CCK-8 method, BXPC-3; type: cell-based, human; details: Homo sapiens; pancreatic cancer BXPC-3, CCK-8 method; read-out: The half maximal inhibitory concentration (IC50)
Protocol: as §1, with “After incubation for 48 h, according to the manufacturer's instructions, CCK-8 reagent (10 μl) was added and incubation was continued for a further 2-4 h.” left out

cervical cancer Hela = assay: In vitro cell inhibition assay, CCK-8 method, Hela; type: cell-based, human; details: Homo sapiens, read-out: The half maximal inhibitory concentration (IC50)
Protocol: as §1, with “After incubation for 48 h, according to the manufacturer's instructions, CCK-8 reagent (10 μl) was added and incubation was continued for a further 2-4 h.” left out

breast cancer MDA-MB-231 = assay: In vitro cell inhibition assay, CCK-8 method, MDA-MB-231; type: cell-based, human; details: Homo sapiens; breast cancer MDA-MB-231, CCK-8 method; read-out: The half maximal inhibitory concentration (IC50)
Protocol: as §1, with “After incubation for 48 h, according to the manufacturer's instructions, CCK-8 reagent (10 μl) was added and incubation was continued for a further 2-4 h.” left out

prostate cancer PC-3 = assay: In vitro cell inhibition assay, CCK-8 method, PC-3; type: cell-based, human; details: Homo sapiens; Prostate cancer PC-3, CCK-8 method; read-out: The half maximal inhibitory concentration (IC50)
Protocol: as §1, with “After incubation for 48 h, according to the manufacturer's instructions, CCK-8 reagent (10 μl) was added and incubation was continued for a further 2-4 h.” left out

colon cancer COLO-205 = assay: In vitro cell inhibition assay, CCK-8 method, COLO-205; details: Homo sapiens, COLO 205, read-out: The half maximal inhibitory concentration (IC50)
leukemia CCRF-CEM = assay: In vitro cell inhibition assay, CCK-8 method, CCRF-CEM; type: cell-based, human; details: Homo sapiens, read-out: The half maximal inhibitory concentration (IC50)
Protocol: as §1, with “After incubation for 48 h, according to the manufacturer's instructions, CCK-8 reagent (10 μl) was added and incubation was continued for a further 2-4 h.” left out

[3] = test system: non-small cell lung cancer NCI-H1650; assay: In vitro cell inhibition assay, CCK-8 method, NCI-H1650; type: cell-based, human; details: Homo sapiens; Non-small-cell carcinoma NCI-H1650, CCK-8 method; read-out: The half maximal inhibitory concentration (IC50)
Protocol: as §1, with “After incubation for 48 h, according to the manufacturer's instructions, CCK-8 reagent (10 μl) was added and incubation was continued for a further 2-4 h.” left out

hepatocarcinoma SK-HEP-1 = assay: In vitro cell inhibition assay, CCK-8 method, SK-HEP-1; type: cell-based, human; details: Homo sapiens, SK-HEP1; hepatocarcinoma SK-HEP-1, CCK-8 method; read-out: The half maximal inhibitory concentration (IC50)
Protocol: as §1, with “After incubation for 48 h, according to the manufacturer's instructions, CCK-8 reagent (10 μl) was added and incubation was continued for a further 2-4 h.” left out

colon cancer HT-29 = assay: In vitro cell inhibition assay, CCK-8 method, HT-29; type: cell-based, human; details: Homo sapiens; Colorectal Cancer HT-29, CCK-8 method; read-out: The half maximal inhibitory concentration (IC50)
Protocol: as §1, with “After incubation for 48 h, according to the manufacturer's instructions, CCK-8 reagent (10 μl) was added and incubation was continued for a further 2-4 h.” left out

glioma U251 = assay: In vitro cell inhibition assay, CCK-8 method, U251; type: cell-based, human; details: Homo sapiens, U-251; glioma U251, CCK-8 method; read-out: The half maximal inhibitory concentration (IC50)
Protocol: as §1, with “After incubation for 48 h, according to the manufacturer's instructions, CCK-8 reagent (10 μl) was added and incubation was continued for a further 2-4 h.” left out

[4] = test system: non-small cell lung cancer NCI-H358; assay: In vitro cell inhibition assay, CCK-8 method, NCI-H358; type: cell-based, human; details: Homo sapiens; Non-small-cell carcinoma NCI-H358, CCK-8 method; read-out: The half maximal inhibitory concentration (IC50)
Protocol: as §1, with “After incubation for 48 h, according to the manufacturer's instructions, CCK-8 reagent (10 μl) was added and incubation was continued for a further 2-4 h.” left out

leukemia MOLT-4 = assay: In vitro cell inhibition assay, CCK-8 method, MOLT-4; type: cell-based, human; details: Homo sapiens; leukemia MOLT-4, CCK-8 method; read-out: The half maximal inhibitory concentration (IC50)
Protocol: as §1, with “After incubation for 48 h, according to the manufacturer's instructions, CCK-8 reagent (10 μl) was added and incubation was continued for a further 2-4 h.” left out

[5] = test system: intracranial malignant melanoma A375; assay: In vitro cell inhibition assay, CCK-8 method, A375; type: cell-based, human; details: Homo sapiens, A-375; melanoma A375, CCK-8 method; read-out: The half maximal inhibitory concentration (IC50)
Protocol: as §1, with “After incubation for 48 h, according to the manufacturer's instructions, CCK-8 reagent (10 μl) was added and incubation was continued for a further 2-4 h.” left out

bladder cancer T24 = assay: In vitro cell inhibition assay, CCK-8 method, T24; type: cell-based, human; details: Homo sapiens; bladder cancer T24, CCK-8 method; read-out: The half maximal inhibitory concentration (IC50)
Protocol: as §1, with “After incubation for 48 h, according to the manufacturer's instructions, CCK-8 reagent (10 μl) was added and incubation was continued for a further 2-4 h.” left out

prostate cancer DU-145 = assay: In vitro cell inhibition assay, CCK-8 method, DU-145; type: cell-based, human; details: Homo sapiens; Prostate cancer DU-145, CCK-8 method; read-out: The half maximal inhibitory concentration (IC50)
Protocol: as §1, with “After incubation for 48 h, according to the manufacturer's instructions, CCK-8 reagent (10 μl) was added and incubation was continued for a further 2-4 h.” left out

osteosarcoma MG-63 = assay: In vitro cell inhibition assay, CCK-8 method, MG-63; type: cell-based, human; details: Homo sapiens; osteosarcoma MG-63, CCK-8 method; read-out: The half maximal inhibitory concentration (IC50)
Protocol: as §1, with “After incubation for 48 h, according to the manufacturer's instructions, CCK-8 reagent (10 μl) was added and incubation was continued for a further 2-4 h.” left out

| IC50 (colon cancer COLO-205) [nM] | SMILES | Proliferation inhibitory effect of the compounds on A549 cells (% of Control) ([1]; CCK-8, 0.01 μM) | Proliferation inhibitory effect of the compounds on A549 cells (% of Control) ([1]; CCK-8, 0.1 μM) | Proliferation inhibitory effect of the compounds on A549 cells (% of Control) ([1]; CCK-8, 1 μM) | Proliferation inhibitory effect of the compounds on A549 cells (% of Control) ([1]; CCK-8, 10 μM) | Proliferation inhibitory effect of the compounds on A549 cells (% of Control) ([1]; CCK-8, 100 μM) | Proliferation inhibitory effect of the compounds on HL-60 cells (% of Control) (leukemia HL-60 cells; concentration 0.01 μM) | Proliferation inhibitory effect of the compounds on HL-60 cells (% of Control) (leukemia HL-60 cells; concentration 0.1 μM) | Proliferation inhibitory effect of the compounds on HL-60 cells (% of Control) (leukemia HL-60 cells; concentration 1 μM) | Proliferation inhibitory effect of the compounds on HL-60 cells (% of Control) (leukemia HL-60 cells; concentration 10 μM) | Proliferation inhibitory effect of the compounds on HL-60 cells (% of Control) (leukemia HL-60 cells; concentration 100 μM) | also measured |
| --- | --- | --- | --- | --- | --- | --- | --- | --- | --- | --- | --- | --- |
| – | COC(=O)c1ccc(Nc2c(Cl)c(Cl)c(C#N)c(Cl)c2C#N)cc1 [Compound 6-25] | 15.66 % of Control | 18.59 % of Control | 17.11 % of Control | 55.87 % of Control | 81.32 % of Control | 11.52 % of Control | 42.54 % of Control | 84.06 % of Control | 92.02 % of Control | 84.30 % of Control | – |
| – | N#Cc1c(Cl)c(Cl)c(Nc2ccc(C(F)(F)F)cc2Cl)c(C#N)c1Cl [Compound 6-47] | 42.56 % of Control | 49.86 % of Control | 53.58 % of Control | 55.57 % of Control | 99.91 % of Control | 7.02 % of Control | 34.70 % of Control | 41.47 % of Control | 83.33 % of Control | 98.51 % of Control | – |
| < 10 | CC(=O)O[C@H]1C(=O)[C@@]2(C)[C@H]([C@H](OC(=O)c3ccccc3)[C@]3(O)C[C@H](OC(=O)[C@H](O)[C@@H](NC(=O)c4ccccc4)c4ccccc4)C(C)=C1C3(C)C)[C@]1(OC(C)=O)CO[C@@H]1C[C@@H]2O [Taxol] | – | – | – | – | – | – | – | – | – | – | IC50 [2]: > 100000 nM; IC50 (pancreatic cancer BXPC-3): < 10 nM; IC50 (cervical cancer Hela): < 10 nM; IC50 (breast cancer MDA-MB-231): 2020 nM; IC50 ([1]; Homo sapiens, Non-small-cell carcinoma A549, CCK-8 method, read-out: The half maximal inhibitory concentration (IC50)): 83500 nM; IC50 (prostate cancer PC-3): 69000 nM; IC50 (leukemia HL-60 cells; Homo sapiens, leukemia HL-60, CCK-8 method, read-out: The half maximal inhibitory concentration (IC50)): < 10 nM; IC50 (leukemia CCRF-CEM): < 10 nM; IC50 [3]: 420 nM; IC50 (hepatocarcinoma SK-HEP-1): 47 nM; IC50 (colon cancer HT-29): > 100000 nM; IC50 (glioma U251): > 100000 nM; IC50 [4]: 278 nM; IC50 (leukemia MOLT-4): < 10 nM; IC50 [5]: 55300 nM; IC50 (bladder cancer T24): 3540 nM; IC50 (prostate cancer DU-145): 17400 nM; IC50 (osteosarcoma MG-63): < 10 nM |
| 6970 | COc1cc2ncnc(Nc3ccc(F)c(Cl)c3)c2cc1OCCCN1CCOCC1 [Gefitinib] | – | – | – | – | – | – | – | – | – | – | – |
| – | COC(=O)c1cc(Cl)c(Nc2c(Cl)c(Cl)c(C#N)c(Cl)c2C#N)c(Cl)c1 [Compound 6-100] | 43.98 % of Control | 50.53 % of Control | 52.15 % of Control | 57.45 % of Control | 89.94 % of Control | 14.24 % of Control | 26.90 % of Control | 39.47 % of Control | 49.85 % of Control | 97.42 % of Control | – |
| – | N#Cc1c(Cl)c(Cl)c(Nc2ccc(C(F)(F)F)cc2)c(C#N)c1Cl [Compound 6-24] | 22.06 % of Control | 24.27 % of Control | 31.44 % of Control | 60.31 % of Control | 87.36 % of Control | 0.00 % of Control | 17.55 % of Control | 48.39 % of Control | 56.72 % of Control | 95.11 % of Control | – |

— US9376376B2, “Substitute diphenylamine compounds use thereof as antitumor agents” (SINOCHEM CORPORATION, priority 2012, dated 2016)
